Read-outs that look alike come from different tables or passages of the source. Bounds are passed on as bounds.

Broadly, the IC50 is the point on the concentration scale where inhibition reaches its midpoint.

Holding throughout (experiment): MTT cell proliferation assay
Assay type in all cases: cell-based
For orientation: Formazan colour is commonly taken as a measure of viable cells.

The subject of one assay is Z138 cells. The settings on record: Homo sapiens, Z-138, Z138 cells, approximately 64-72 hours incubation. A digest of the protocol:
(§1)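 Cytotoxicity was measured by MTT: OD490 of the solubilized formazan after roughly 4 h with MTT reagent, reported as mean percent inhibition relative to the negative control. Test compounds covered eight concentrations between 1 nM and 30 μM, added to 5,000–10,000 cells per well that had attached overnight.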

The test system of the next assay is 3T3 cells. The settings on record: Mus musculus, NIH3T3, approximately 64-72 hours incubation. A digest of the protocol: as §1
The next assay concerns MS751 cells. The settings on record: Homo sapiens, MS751, MS751 cells, approximately 64-72 hours incubation. The method in brief: as §1
Setting [1] is: read-out: MTT Assay IC50, Z-138.
Setting [2] is: read-out: MTT Assay IC50, MS-751.
Where [3] appears, read: read-out: MTT Assay IC50 MS-751.

Take `Nc1ccc(/C=C/C(=O)NCc2cc3cc(C4CC4C(=O)N4CCC(F)(F)CC4)cc(C(F)(F)F)c3o2)cn1` (stereo not drawn) [Compound 695, (E)-3-(6-aminopyridin-3-yl)-N-((5-(2-(4,4-difluoropiperidine-1-carbonyl)cyclopropyl)-7-(trifluoromethyl)benzofuran-2-yl)methyl)acrylamide]: the half-maximal inhibitory concentration (IC50) with Z138 cells (setting [1]) was 0.1 to 5 µM; in the assay with 3T3 cells (read-out: MTT Assay IC50, 3T3), above 10 µM; with MS751 cells (setting [2]), 0.1 to 5 µM.

As for `CN1CCN(C(=O)c2cnc(-c3cc(C(F)(F)F)c4oc(CNC(=O)/C=C/c5ccc(N)nc5)cc4c3)nc2)CC1` [Compound 594, (E)-3-(6-aminopyridin-3-yl)-N-((5-(5-(4-methylpiperazine-1-carbonyl)pyrimidin-2-yl)-7-(trifluoromethyl)benzofuran-2-yl)methyl)acrylamide], the IC50 in the assay with Z138 cells (read-out: MTT Assay IC50 Z-138) is 0.1 to 5 µM; in the assay on 3T3 cells (read-out: MTT Assay IC50 3T3) it was above 10 µM; in the assay on MS751 cells (setting [3]), 0.1 to 5 µM.

On to `Nc1ccc(/C=C/C(=O)NCc2cc3cc(-c4ccc(C(=O)N5CCNCC5)cn4)cc(C(F)(F)F)c3o2)cn1` [Compound 577, (E)-3-(6-aminopyridin-3-yl)-N-((5-(5-(piperazine-1-carbonyl)pyridin-2-yl)-7-(trifluoromethyl)benzofuran-2-yl)methyl)acrylamide], for which the IC50 was below 0.1 µM in the assay on Z138 cells (read-out: MTT Assay IC50 Z-138), above 10 µM with 3T3 cells (read-out: MTT Assay IC50 3T3) and below 0.1 µM with MS751 cells (setting [3]).

On to `Nc1ccc(/C=C/C(=O)NCc2cc3cc(-c4ccc(C(=O)N5CCOCC5)c(F)c4F)cc(Cl)c3o2)cn1` [Compound 548, (E)-3-(6-aminopyridin-3-yl)-N-((7-chloro-5-(2,3-difluoro-4-(morpholine-4-carbonyl)phenyl)benzofuran-2-yl)methyl)acrylamide], for which the 50% inhibitory concentration (IC50) with Z138 cells (read-out: MTT Assay IC50 Z-138) was 0.1 to 5 µM; in the assay on 3T3 cells (read-out: MTT Assay IC50 3T3), above 10 µM; in the assay on MS751 cells (setting [3]) it was 0.1 to 5 µM.

Regarding `O=C(/C=C/c1cccnc1)NCc1cc2cc(-c3ccc(C(=O)N4CCC(F)(F)CC4)cc3)cc(-c3cccnc3)c2o1` [Compound 725, (E)-N-((5-(4-(4,4-difluoropiperidine-1-carbonyl)phenyl)-7-(pyridin-3-yl)benzofuran-2-yl)methyl)-3-(pyridin-3-yl)acrylamide], the IC50 with Z138 cells (setting [1]) was below 0.1 µM; with 3T3 cells (read-out: MTT Assay IC50, 3T3) it was below 0.1 µM; in the assay with MS751 cells (setting [2]) it was below 0.1 µM.

Consider `Nc1ccc(/C=C/C(=O)NCc2cc3cc(-c4ccc(C(=O)N5CC[C@H](Cl)C5)cc4)cc(C(F)(F)F)c3o2)cn1` [Compound 610, (S,E)-3-(6-aminopyridin-3-yl)-N-((5-(4-(3-chloropyrrolidine-1-carbonyl)phenyl)-7-(trifluoromethyl)benzofuran-2-yl)methyl)acrylamide], for which the half-maximal inhibitory concentration (IC50) was 0.1 to 5 µM in the assay on Z138 cells (read-out: MTT Assay IC50 Z-138), above 10 µM in the assay with 3T3 cells (read-out: MTT Assay IC50 3T3) and 0.1 to 5 µM with MS751 cells (setting [3]).

`Nc1ccc(/C=C/C(=O)NCc2cc3cc(-c4ccc(C(=O)NNc5cnccn5)cc4)cc(C(F)(F)F)c3o2)cn1` [Compound 519, (E)-3-(6-aminopyridin-3-yl)-N-((5-(4-(2-(pyrazin-2-yl)hydrazinecarbonyl)phenyl)-7-(trifluoromethyl)benzofuran-2-yl)methyl)acrylamide]: the IC50 in the assay on Z138 cells (read-out: MTT Assay IC50 Z-138) is 0.1 to 5 µM; with 3T3 cells (read-out: MTT Assay IC50 3T3) it was above 10 µM; in the assay on MS751 cells (setting [3]), 0.1 to 5 µM.

In the case of `Nc1ccc(/C=C/C(=O)NCc2cc3cc(-c4cc(C(=O)N5CCOCC5)c(F)cn4)cc(C(F)(F)F)c3o2)cn1` [Compound 580, (E)-3-(6-aminopyridin-3-yl)-N-((5-(5-fluoro-4-(morpholine-4-carbonyl)pyridin-2-yl)-7-(trifluoromethyl)benzofuran-2-yl)methyl)acrylamide], the results for the half-maximal inhibitory concentration (IC50) with Z138 cells (read-out: MTT Assay IC50 Z-138), in the assay on 3T3 cells (read-out: MTT Assay IC50 3T3) and with MS751 cells (setting [3]) were below 0.1 µM, 5 to 10 µM and below 0.1 µM, respectively.

As for `Nc1ccc(/C=C/C(=O)NCc2cc3cc(-c4ccc(C(O)c5ccc(F)cc5)cn4)cc(-c4ccc(F)cc4)c3o2)cn1` (stereo not drawn) [Compound 704, (E)-3-(6-aminopyridin-3-yl)-N-((7-(4-fluorophenyl)-5-(5-((4-fluorophenyl)(hydroxy)methyl)pyridin-2-yl)benzofuran-2-yl)methyl)acrylamide], the IC50 is 0.1 to 5 µM with Z138 cells (setting [1]); above 10 µM with 3T3 cells (read-out: MTT Assay IC50, 3T3); 0.1 to 5 µM in the assay on MS751 cells (setting [2]).

The values above are taken from patent publication US12331040B2 (Karyopharm Therapeutics Inc., priority 2013, dated 2025).
